Assay results published in paper PMC5853648 (Biochemistry, 2017).

Tests used:
CidC [1] = molecular target: T1, CidC (Staphylococcus aureus, UniProt Q6PST7); assay: tryptophan fluorescence quenching titration; type: binding
T1 sequence (Q6PST7 2-579): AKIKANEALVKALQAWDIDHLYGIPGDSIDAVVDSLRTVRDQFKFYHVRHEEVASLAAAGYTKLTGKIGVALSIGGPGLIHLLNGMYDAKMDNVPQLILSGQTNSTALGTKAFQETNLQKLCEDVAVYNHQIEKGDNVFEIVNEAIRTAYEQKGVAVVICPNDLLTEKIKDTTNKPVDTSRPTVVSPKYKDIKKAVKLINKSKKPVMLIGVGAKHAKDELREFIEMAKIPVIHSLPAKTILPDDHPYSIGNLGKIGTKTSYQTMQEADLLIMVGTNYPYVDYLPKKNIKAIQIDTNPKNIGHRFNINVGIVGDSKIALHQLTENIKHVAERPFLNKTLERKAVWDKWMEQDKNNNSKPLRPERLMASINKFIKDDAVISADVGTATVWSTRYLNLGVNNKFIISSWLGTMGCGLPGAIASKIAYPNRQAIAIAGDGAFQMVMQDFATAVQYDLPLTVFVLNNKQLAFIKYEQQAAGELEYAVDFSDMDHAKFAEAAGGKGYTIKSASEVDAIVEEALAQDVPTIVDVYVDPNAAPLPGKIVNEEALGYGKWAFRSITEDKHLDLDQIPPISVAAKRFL

CidC [2] = molecular target: T1, CidC; assay: ferricyanide reduction assay, absorbance […] nm; type: biochemical

Kd (CidC [1]) [mM] | IC50 (CidC [2]) [mM] | SMILES
0.0003 |  | Cc1ncc(C[n+]2csc(CCO[P@](=O)(O)OP(=O)(O)O)c2C)c(N)n1 [TPP]
 | 10 | O=C(O)CC(O)(CC(=O)O)C(=O)O [citrate]
